Source: US11622951B2, “Alpha-aminoadipate for treatment of vision loss and restoring sight” (The Schepens Eye Research Institute, Inc., priority 2013, dated 2023)

How the values were obtained:
Assay type in all cases: in vivo, mouse
GFAP = experiment: Western blot of GFAP expression in injected retinas
Description: To determine the effect of α-AA on retinal glial cells, mouse retinas were dissected and homogenized in lysis buffer 3% sodium dodecyl sulfate (Sigma-Aldrich), 0.3 M sucrose (Sigma-Aldrich), 1 mM orthovanadium (Sigma-Aldrich)]. Protein concentrations were determined with a BCA assay (Pierce; Rockford, Ill.). Protein (20 μg) was loaded on a 10% sodium dodecyl sulfate-polyacrylamide gel and transferred to a nitrocellulose membrane. The blot was blocked in 1% bovine serum albumin (Sigma-Aldrich) and 4% dry milk in PBS and probed with primary antibodies against GFAP (1:1000; Chemicon; Temecula, Calif.) and β-actin (Sigma-Aldrich) as loading controls. After incubation with appropriate secondary antibodies conjugated to horseradish peroxidase (Jackson Immunochemicals; West Grove, Pa.), detection was performed with Super Signal West Pico (Pierce). Retinal astrocytes and Müller glia are central to the homeostatic and metabolic support of retinal neurons; whereas, after injury these cells develop glial scar that forms critical barriers to neuron regeneration and integration by retinal progenitor cells. […] Retinal glial morphology was examined by immunolabeling for glial marker GFAP and assessed the level of GFAP expression by Western blot at day 1-7 post injection. Expression of GFAP is widely detected in the normal mouse retinas (FIG. 1a).

Müller glia = experiment: Electron microscopy count of Müller cell nuclei in retinal sections; details: 3 days after subretinal injection 1 μg/μl, vs saline-injected group
Description: Mice were sacrificed 3 days after receiving the injection of α-AA (1 μg/μl) or saline as controls by injection of overdose of ketamine/xylazine followed by cervical dislocation, and the eyeballs were dissected, fixed with Karnovsky's fixative (pH 7.4) for 24 h. The quadrants of the eyes that received subretinal injection were dissected and embedded in Epon-Araldite. Semi-thin sections (1-2 μm) were stained with phenylenediamine phase staining. The sections were examined and photographed with a transmission electron microscope (EM410; Philips; Eindhoven, The Netherlands). Ten randomly selected retinal sections of each eye were photographed at 1900× magnification, and all Müller glial nuclei in the photomicrograph were counted.
Retinal sections were examined under electron microscopy, in which Müller glia were identified by their characteristic angular nuclei, dense chromatin and dark perinuclear cytoplasm (FIG. 1e-h). […] This was also confirmed by immunolabeling for specific markers of retinal neurons, including photoreceptors (recoverin) and amacrine cells (syntaxin) (FIG. 2).

[1] = tested on: grafted retinal progenitor cells; experiment: Integration of grafted EGFP+ retinal progenitor cells into pretreated wild-type host retina
Description: Mice were anesthetized by intraperitoneal injection of ketamine (62.5 mg/kg) and xylazine (12.5 mg/kg) and transcardially perfused with phosphate buffered saline (PBS) followed by 4% paraformaldehyde in PBS. Retinal flat-mounts or transverse retinal sections (14 μm) were preblocked with PBS containing 3% bovine serum albumin (Sigma-Aldrich, St. Louis, Mo.) and 0.3% Triton X (Sigma-Aldrich) and incubated, first, with primary antibody overnight, and then with secondary antibody for 1 hour at room temperature. The following antibodies were used: Cy3-conjugated monoclonal antibody against GFAP (1:1000; Sigma), Brn-3b (1:200; Santa Cruz Biotechnology; Santa Cruz, Calif.), mouse anti-rhodopsin (1:4000; Rho1D4), chick anti-cone-opsin (1:300), and Cy-2, Cy-3 or Cy-5-conjugated secondary antibody (Jackson ImmunoResearch; West Grove, Pa.). Assessment of morphological integration were quantified by counting EGFP+ cells located outside of transplanted cell clusters in retinal whole-mounts. Statistical significance was determined by either the two tailed student t test or ANOVA.
At 2 days before transplantation, 2 μl of a solution containing either α-AA (1 μg/μl) or saline (control) was injected unilaterally into the subretinal space of recipient wild-type or Gnat1^−/− mice (>2 months old). The procedure for donor cell preparation was essentially as described by Kinouchi et al, 2003, Nat Neurosci, 6:863-868. Briefly, retinal progenitor cells were isolated from postnatal day 0 (P0) EGFP transgenic mice. […]
If transient disruption of retinal glia with α-AA promotes morphological integration of grafted retinal progenitors in vivo was next investigated. […] Thus, in the following studies, cell transplantation was performed at day 2 after α-AA pretreatment when temporal disruption of residential glial structure by α-AA was detected that effectively ameliorates the host barrier to cell integration and promotes grafted cell migration into the host retina.

[2] = tested on: rod photoreceptor cell function; experiment: Scotopic ERG a-wave after retinal progenitor transplantation in Gnat1-/- mice; details: pretreatment plus retinal progenitor cell transplantation, 21 days post transplantation
Description: At 2 days before transplantation, 2 μl of a solution containing either α-AA (1 μg/μl) or saline (control) was injected unilaterally into the subretinal space of recipient wild-type or Gnat1^−/− mice (>2 months old). The procedure for donor cell preparation was essentially as described by Kinouchi et al, 2003, Nat Neurosci, 6:863-868. Briefly, retinal progenitor cells were isolated from postnatal day 0 (P0) EGFP transgenic mice. Cell suspensions containing approximately 1×10^6 dissociated cells were injected slowly through a glass micropipette into the subretinal space of pretreated recipient mice through the same injection site where either saline or α-AA had been injected 2 days prior.
At 21 days post transplantation, Gnat1−/− mice that had received either α-AA or saline-pretreatment followed by retinal progenitor cell transplantation were analyzed by full-field ERG. Mice were dark adapted for 12 hours and then anesthetized by intraperitoneal injection of ketamine (62.5 mg/kg) and xylazine (12.5 mg/kg). […] A total of six scans were taken and averaged; the a-wave amplitudes were measured from baseline to the peak in the cornea-negative direction. […] Statistical significance was calculated using the Student's t test or ANOVA. […]

Muller cells = experiment: Müller cell proliferation and trans-differentiation in diseased eyes of Rho-/- mice; details: administered directly to the diseased eyes of Rho-/- mice
Excerpt: Photoreceptor cell death can be measured or assessed by electroretinography, and a reduction or absence of a-wave and/or b-waves. […] Furthermore, proliferating Muller cells were also shown to be capable of trans-differentiating into retinal progenitor cells (expressing retinal progenitor markers).

NC(CCCC(=O)O)C(=O)O (stereo not drawn) [α-AA, alpha-aminoadipate]
GFAP expression, Western blot quantification (GFAP; by day 7 post injection): returned to a control level | GFAP expression, Western blot quantification (GFAP; day 3 post injection, vs normal or saline-injected controls): significant downregulation | reduction in counts of Müller cell nuclei (Müller glia): 30% | number of cells repopulated the host retina ([1]; transplantation performed after day 5 post treatment): drastically diminished | increase in number of engrafted cells bearing long neurites (>3 body length) ([1]; wild-type hosts, three weeks post transplantation, vs saline-treated or untreated retinas): 7-11 fold | increase in the number of EGFP+ cells repopulated into the host retina ([1]; wild-type hosts, transplantation day 2 after pretreatment, three weeks post transplantation, vs saline-treated or untreated retinas): 3-5 fold | ERG a-wave (rod photoreceptor response) [2]: a typical a-wave was detected | proliferation of Muller cells (Muller cells): resulted in proliferation of Muller cells
